Measurements: ChEMBL document CHEMBL1149532, “Identification of 2-(4,5,6,7-tetrahydro-1H-pyrrolo[3,2-c]pyridin-3-yl)-ethylamine derivatives as novel GnRH receptor antagonists” (Bioorg Med Chem Lett, 2007)
Active and inactive are the calls of the source. No cut-off for these calls is given here.

Columns and labels:
[1] = molecular target: T1, Gonadotropin-releasing hormone receptor (Homo sapiens, UniProt P30968); test: Inhibition of human GnRHR expressed in RBL cells assessed as inhibition of GnRH-stimulated [3H]inositol phosphate hydrolysis; format: functional, cell-based
T1 sequence (P30968 whole entry): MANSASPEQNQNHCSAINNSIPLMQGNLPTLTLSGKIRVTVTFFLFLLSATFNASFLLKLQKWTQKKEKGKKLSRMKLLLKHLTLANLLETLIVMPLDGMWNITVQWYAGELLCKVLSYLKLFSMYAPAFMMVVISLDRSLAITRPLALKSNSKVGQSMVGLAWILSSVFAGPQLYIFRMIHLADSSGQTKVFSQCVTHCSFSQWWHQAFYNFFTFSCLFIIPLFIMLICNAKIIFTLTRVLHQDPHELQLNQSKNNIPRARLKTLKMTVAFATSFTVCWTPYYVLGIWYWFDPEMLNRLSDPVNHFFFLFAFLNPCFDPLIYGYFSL

[2] = molecular target: T2, Gonadotropin-releasing hormone receptor (Rattus norvegicus, UniProt P30969); test: Displacement of [125I]-Tyr5, DLeu6, NMeLeu7, Pro-N-Et-GnRH from cloned rat GnRHR
T2 sequence (P30969 whole entry): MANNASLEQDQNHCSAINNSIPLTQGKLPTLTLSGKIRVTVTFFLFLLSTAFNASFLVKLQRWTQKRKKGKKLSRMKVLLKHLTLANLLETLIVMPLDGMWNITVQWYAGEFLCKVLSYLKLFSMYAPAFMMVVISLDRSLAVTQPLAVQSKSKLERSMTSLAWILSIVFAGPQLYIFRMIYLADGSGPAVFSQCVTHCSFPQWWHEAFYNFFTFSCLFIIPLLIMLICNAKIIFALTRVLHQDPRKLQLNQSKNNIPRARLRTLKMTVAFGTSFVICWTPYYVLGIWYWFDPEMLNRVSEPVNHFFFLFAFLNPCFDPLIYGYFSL

[3] = molecular target: T2, Gonadotropin-releasing hormone receptor; test: Inhibition of GnRHR in rat pituitary cells assessed as inhibition of GnRH-stimulated LH release; format: functional, cell-based, Pituitary gland cell
[4] = molecular target: T3, Gonadotropin-releasing hormone receptor (Rattus norvegicus) (UniProt P30969); test: Decrease in LH concentration in rat plasma at 1.5 mg/kg, ip after 24 hrs by radioimmunoassay; format: functional, organism-based; set-up: dose 1.5 mg/kg
T3 sequence (whole entry): T2 sequence (P30969 whole entry)

[5] = molecular target: T3, Gonadotropin-releasing hormone receptor (Rattus norvegicus); test: Decrease in LH concentration in rat plasma at 15 mg/kg, ip after 24 hrs by radioimmunoassay; format: functional, organism-based; set-up: dose 15 mg/kg
[6] = AUC in rat at 1.5 mg/kg, ip after 24 hrs; format: ADME, organism-based; set-up: time < 24 hr, dose 1.5 mg/kg, route intraperitoneal; conditions: plasma
[7] = AUC in rat at 4.5 mg/kg, ip after 24 hrs; format: ADME, organism-based; set-up: time < 24 hr, dose 4.5 mg/kg, route intraperitoneal; conditions: plasma
[8] = AUC in rat at 15 mg/kg, ip after 24 hrs; format: ADME, organism-based; set-up: time < 24 hr, dose 15 mg/kg, route intraperitoneal; conditions: plasma

| Compound | IC50 [1] | Ki [2] | IC50 [3] | other results |
| --- | --- | --- | --- | --- |
| Cc1cc(C)cc(-c2[nH]c3c(c2[C@H](C)CNCCc2ccc4nc(C)[nH]c4c2)CN(C(=O)Cc2c(F)cccc2C(F)(F)F)CC3)c1 | 87 nM | 1 nM |  |  |
| Cc1cc(C)cc(-c2[nH]c3c(c2[C@H](C)CNCCc2ccncc2)CN(C(=O)C24CC5CC(CC(C5)C2)C4)CC3)c1 | 546 nM | 1.5 nM | 63 nM |  |
| CC(=O)N1CCc2[nH]c(-c3cc(C)cc(C)c3)c([C@H](C)CNCCc3ccncc3)c2C1 | 8090 nM | 120 nM |  |  |
| Cc1cc(C)cc(-c2[nH]c3c(c2[C@H](C)CNCCc2ccncc2)CN(C(=O)Cc2ccccc2C(F)(F)F)CC3)c1 | 86 nM | 1.5 nM | 47 nM |  |
| Cc1cc(C)cc(-c2[nH]c3c(c2[C@H](C)CNCCc2cc4[nH]nnc4cc2F)CN(C(=O)Cc2c(F)cccc2C(F)(F)F)CC3)c1 | 16 nM | 0.7 nM | 28 nM |  |
| Cc1cc(C)cc(-c2[nH]c3c(c2[C@H](C)CNCc2ccc(-c4nnn[nH]4)cc2)CN(C(=O)Cc2c(F)cccc2C(F)(F)F)CC3)c1 | 1600 nM | 1600 nM |  |  |
| Cc1cc(C)cc(-c2[nH]c3c(c2[C@H](C)CNCCc2ccncc2)CNCC3)c1 | > 10000 nM | > 10000 nM |  |  |
| Cc1cc(C)cc(-c2[nH]c3c(c2[C@H](C)CNCCc2ccncc2)CN(C(=O)Cc2ccccc2)CC3)c1 | 1110 nM | 4.5 nM | 110 nM |  |
| COc1ccccc1CC(=O)N1CCc2[nH]c(-c3cc(C)cc(C)c3)c([C@H](C)CNCCc3ccncc3)c2C1 | 462 nM | 5.6 nM |  |  |
| Cc1cc(C)cc(-c2[nH]c3c(c2[C@H](C)CNCCc2ccc(C(=O)O)cc2)CN(C(=O)Cc2c(F)cccc2C(F)(F)F)CC3)c1 | 22 nM | 2 nM |  |  |
| Cc1cc(C)cc(-c2[nH]c3c(c2[C@H](C)CNCCc2ccncc2)CN(C(=O)Cc2ccccc2Cl)CC3)c1 | 267 nM | 2.6 nM |  |  |
| Cc1cc(C)cc(-c2[nH]c3c(c2[C@H](C)CNCCc2ccc(-c4nnn[nH]4)cc2)CN(C(=O)Cc2c(F)cccc2C(F)(F)F)CC3)c1 | 1.5 nM | 0.2 nM | 0.6 nM | Activity [4]: Dose-dependent effect; Activity [5]: Active; AUC at 24 h [6]: 1290 ng·h/mL; AUC at 24 h [7]: 2470 ng·h/mL; AUC at 24 h [8]: 6500 ng·h/mL |
| Cc1cc(C)cc(-c2[nH]c3c(c2[C@H](C)CNCCc2ccncc2)CN(C(=O)Cc2ccccc2F)CC3)c1 | 271 nM | 1.8 nM | 280 nM |  |
| Cc1cc(C)cc(-c2[nH]c3c(c2[C@H](C)CNCCOc2ccc(-c4nnn[nH]4)cc2)CN(C(=O)Cc2c(F)cccc2C(F)(F)F)CC3)c1 | 63 nM | 6.2 nM |  |  |
| Cc1cc(C)cc(-c2[nH]c3c(c2[C@H](C)CNCCc2ccc(-c4nnn[nH]4)nc2)CN(C(=O)Cc2c(F)cccc2C(F)(F)F)CC3)c1 | 7 nM | 0.6 nM | 44 nM |  |
| Cc1cc(C)cc(-c2[nH]c3c(c2[C@H](C)CNCCC2CCOCC2)CN(C(=O)Cc2c(F)cccc2C(F)(F)F)CC3)c1 | 205 nM | 4.7 nM | 480 nM |  |
| Cc1cc(C)cc(-c2[nH]c3c(c2[C@H](C)CNCCc2ccc4nccnc4c2)CN(C(=O)Cc2c(F)cccc2C(F)(F)F)CC3)c1 | 60 nM | 0.3 nM | 68 nM |  |
| Cc1cc(C)cc(-c2[nH]c3c(c2[C@H](C)CNCCc2ccncc2)CN(C(=O)C2CCCC2)CC3)c1 | 3480 nM | 18 nM | 250 nM |  |
| Cc1cc(C)cc(-c2[nH]c3c(c2[C@H](C)CNCCc2ccncc2)CN(C(=O)c2ccccc2)CC3)c1 | > 10000 nM | 660 nM |  |  |
| Cc1cc(C)cc(-c2[nH]c3c(c2[C@H](C)CNCCc2cnc4nn[nH]c4c2)CN(C(=O)Cc2c(F)cccc2C(F)(F)F)CC3)c1 | 9 nM | 0.6 nM | 6.4 nM |  |
| Cc1cc(C)cc(-c2[nH]c3c(c2[C@H](C)CNCCc2ccc4nn[nH]c4c2)CN(C(=O)Cc2c(F)cccc2C(F)(F)F)CC3)c1 | 26 nM | 0.5 nM | 1.2 nM |  |
| Cc1cc(C)cc(-c2[nH]c3c(c2[C@H](C)CNCCc2ccc(=O)n(C)c2)CN(C(=O)Cc2c(F)cccc2C(F)(F)F)CC3)c1 | 32 nM | 0.4 nM |  |  |
| Cc1cc(C)cc(-c2[nH]c3c(c2[C@H](C)CNCCc2ccncc2)CN(C(=O)Cc2c(F)cccc2C(F)(F)F)CC3)c1 | 62 nM | 0.5 nM | 57 nM |  |
| Cc1cc(C)cc(-c2[nH]c3c(c2[C@H](C)CNCCc2ccncc2)CN(C(=O)C2C(C)(C)C2(C)C)CC3)c1 | 475 nM | 1.3 nM | 96 nM |  |
| Cc1cc(C)cc(-c2[nH]c3c(c2[C@H](C)CN)CN(C(=O)Cc2c(F)cccc2C(F)(F)F)CC3)c1 | 4180 nM | 470 nM |  |  |
| CCn1c(=O)[nH]c2cc(CCNC[C@@H](C)c3c(-c4cc(C)cc(C)c4)[nH]c4c3CN(C(=O)Cc3c(F)cccc3C(F)(F)F)CC4)ccc2c1=O | 91 nM | 1.8 nM |  |  |
